For 35 compounds, IC50 results are on record in US9637491B2, “Pyrazolo[4,3-D]pyrimidines as kinase inhibitors” (Origenis GmbH, priority 2012, dated 2017).

The assay deals with T1, SYK kinase (Homo sapiens, UniProt P43405).
T1 construct: purchased Invitrogen, Carlsbad
Nature of the assay: SYK assay (OMNIA Kinase Assay, Invitrogen). The format is biochemical. The following applies: SYK Activities; 1 mM ATP, 10 μM Omnia Peptide Substrate Tyr 7, 30° C. The essentials: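 SYK was added last to start phosphorylation of a chelation-enhanced SOX peptide substrate (10 μM) in the presence of 1 mM ATP and 0.2 mM DTT at 30° C. Kinetic readings at λex 360/λem 485 nm over 30 min gave velocities, fitted sigmoidally against compound concentration to give IC50.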

Broadly, the IC50 is the concentration that gives 50% inhibition. Low values mean higher potency, high ones lower potency. On to `c1ccc(Cn2cc(-c3nc(Nc4ccc(N5CCOCC5)cc4)c4[nH]ncc4n3)cn2)cc1` [Example 460, 5-(1-benzyl-1H-pyrazol-4-yl)-N-(4-morpholinophenyl)-1H-pyrazolo[4,3-d]pyrimidin-7-amine], for which the 50% inhibitory concentration (IC50) is 10 to 100 nM. The compound `N#CC1(n2cc(Nc3nc(-c4ccoc4)nc4cn[nH]c34)cn2)CCCCC1` [Example 219, 1-(4-((5-(furan-3-yl)-1H-pyrazolo[4,3-d]pyrimidin-7-yl)amino)-1H-pyrazol-1-yl)cyclohexanecarbonitrile] showed an IC50 of 100 to 1000 nM. Compound `Fc1cc(Nc2nc(-c3ccon3)nc3cn[nH]c23)ccc1N1CCOCC1` [Example 75, N-(3-fluoro-4-morpholinophenyl)-5-(isoxazol-3-yl)-1H-pyrazolo[4,3-d]pyrimidin-7-amine] had a half-maximal inhibitory concentration (IC50) of 100 to 1000 nM. On to `CC(C)(C)n1cc(Nc2nc(-c3ccc4cn[nH]c4c3)nc3cn[nH]c23)cn1` [Example 415, N-(1-(tert-butyl)-1H-pyrazol-4-yl)-5-(1H-indazol-6-yl)-1H-pyrazolo[4,3-d]pyrimidin-7-amine], for which the IC50 lay in the range of 10 to 100 nM. `CN1CCN(C(=O)c2ccc(Nc3nc(-c4c(F)cccc4F)nc4cn[nH]c34)cc2)CC1` [Example 500, (4-((5-(2,6-difluorophenyl)-1H-pyrazolo[4,3-d]pyrimidin-7-yl)amino)phenyl)(4-methylpiperazin-1-yl)methanone] had an IC50 of 100 to 1000 nM. The value for `CC(C)Cn1cc(Nc2nc(-c3cnn(C)c3)nc3cn[nH]c23)cn1` [Example 437, N-(1-isobutyl-1H-pyrazol-4-yl)-5-(1-methyl-1H-pyrazol-4-yl)-1H-pyrazolo[4,3-d]pyrimidin-7-amine] was 10 to 100 nM; that for `c1ccc2sc(-c3nc(Nc4cnn(C5CC5)c4)c4[nH]ncc4n3)nc2c1` [Example 410, 5-(benzo[d]thiazol-2-yl)-N-(1-cyclopropyl-1H-pyrazol-4-yl)-1H-pyrazolo[4,3-d]pyrimidin-7-amine] was less than 10 nM; that for `COCCn1cc(-c2nc(Nc3ccc(N4CCOCC4)cc3)c3[nH]ncc3n2)cn1` [Example 393, 5-(1-(2-methoxyethyl)-1H-pyrazol-4-yl)-N-(4-morpholinophenyl)-1H-pyrazolo[4,3-d]pyrimidin-7-amine] was 100 to 1000 nM. The compound `Cn1ccc(-c2nc(Nc3ccc(N4CCOCC4)cc3)c3[nH]ncc3n2)n1` [Example 175, 5-(1-methyl-1H-pyrazol-3-yl)-N-(4-morpholinophenyl)-1H-pyrazolo[4,3-d]pyrimidin-7-amine] had an IC50 of 100 to 1000 nM. The value for `COc1ccc(Nc2nc(-c3ccon3)nc3cn[nH]c23)cc1OC` [Example 73, N-(3,4-dimethoxyphenyl)-5-(isoxazol-3-yl)-1H-pyrazolo[4,3-d]pyrimidin-7-amine] was 100 to 1000 nM; that for `c1cncc(-c2cccc(-c3nc(Nc4cnn(C5CCNC5)c4)c4[nH]ncc4n3)c2)c1` (centres unmarked) [Example 465, 5-(3-(pyridin-3-yl)phenyl)-N-(1-(pyrrolidin-3-yl)-1H-pyrazol-4-yl)-1H-pyrazolo[4,3-d]pyrimidin-7-amine] was 10 to 100 nM; that for `c1cc(-c2nc(Nc3cnn(C4CCCOC4)c3)c3[nH]ncc3n2)co1` (centres unmarked) [Example 483, 5-(furan-3-yl)-N-(1-(tetrahydro-2H-pyran-3-yl)-1H-pyrazol-4-yl)-1H-pyrazolo[4,3-d]pyrimidin-7-amine] was 10 to 100 nM. The value for `CN1CCN(c2ccc(Nc3nc(-c4ccc5cn[nH]c5c4)nc4cn[nH]c34)cc2CO)CC1` [Example 536, (5-((5-(1H-indazol-6-yl)-1H-pyrazolo[4,3-d]pyrimidin-7-yl)amino)-2-(4-methylpiperazin-1-yl)phenyl)methanol] was less than 10 nM; that for `COc1ccc(Nc2nc(-c3cccc(C(=O)Nc4ccc(-c5ncco5)cc4)c3)nc3cn[nH]c23)cc1OC` [Example 321, 3-(7-((3,4-dimethoxyphenyl)amino)-1H-pyrazolo[4,3-d]pyrimidin-5-yl)-N-(4-(oxazol-2-yl)phenyl)benzamide] was 100 to 1000 nM. Compound `CC(C)(C)N1CCC(n2cc(Nc3nc(-c4ccc5cn[nH]c5c4)nc4cn[nH]c34)cn2)CC1` [Example 468, N-(1-(1-(tert-butyl)piperidin-4-yl)-1H-pyrazol-4-yl)-5-(1H-indazol-6-yl)-1H-pyrazolo[4,3-d]pyrimidin-7-amine] displayed an IC50 of less than 10 nM.

With `CC(C)(C)N1CCC(n2cc(Nc3nc(C4CC4)nc4cn[nH]c34)cn2)CC1` [Example 328, N-(1-(1-(tert-butyl)piperidin-4-yl)-1H-pyrazol-4-yl)-5-cyclopropyl-1H-pyrazolo[4,3-d]pyrimidin-7-amine], the IC50 is less than 10 nM. `COc1cc(Nc2nc([C@H]3C[C@@H]3c3ccccc3)nc3cn[nH]c23)ccc1N1CCOCC1` [Example 508, N-(3-methoxy-4-morpholinophenyl)-5-((1S,2S)-2-phenylcyclopropyl)-1H-pyrazolo[4,3-d]pyrimidin-7-amine]: the IC50 was in the range of 100 to 1000 nM. `CN1CCC(n2cc(Nc3nc(C4CC4)nc4cn[nH]c34)cn2)CC1` [Example 207, 5-cyclopropyl-N-(1-(1-methylpiperidin-4-yl)-1H-pyrazol-4-yl)-1H-pyrazolo[4,3-d]pyrimidin-7-amine]: the IC50 was in the range of 10 to 100 nM. The compound `CC(=O)N1CCC(n2cc(Nc3nc(-c4ccc5cn[nH]c5c4)nc4cn[nH]c34)cn2)CC1` [Example 133, 1-(4-(4-((5-(1H-indazol-6-yl)-1H-pyrazolo[4,3-d]pyrimidin-7-yl)amino)-1H-pyrazol-1-yl)piperidin-1-yl)ethan-1-one] registered an IC50 of 10 to 100 nM. The value for `c1ccc2oc(-c3nc(Nc4cnn(C5CCOCC5)c4)c4[nH]ncc4n3)nc2c1` [Example 446, 5-(benzo[d]oxazol-2-yl)-N-(1-(tetrahydro-2H-pyran-4-yl)-1H-pyrazol-4-yl)-1H-pyrazolo[4,3-d]pyrimidin-7-amine] was 10 to 100 nM; that for `CC(C)Cn1cc(Nc2nc(C3CC3)nc3cn[nH]c23)cn1` [Example 233, 5-cyclopropyl-N-(1-isobutyl-1H-pyrazol-4-yl)-1H-pyrazolo[4,3-d]pyrimidin-7-amine] was 10 to 100 nM. Take `CC(C)(C)N1CCN(c2ccc(Nc3nc(-c4cocn4)nc4cn[nH]c34)cc2)CC1` [Example 49, N-(4-(4-(tert-butyl)piperazin-1-yl)phenyl)-5-(oxazol-4-yl)-1H-pyrazolo[4,3-d]pyrimidin-7-amine]: the IC50 fell in the range of 10 to 100 nM. Turning to `CN1CCN(C2CCN(C(=O)c3ccc(Nc4nc(C5CC5)nc5cn[nH]c45)cc3)CC2)CC1` [Example 53, (4-((5-cyclopropyl-1H-pyrazolo[4,3-d]pyrimidin-7-yl)amino)phenyl)(4-(4-methylpiperazin-1-yl)piperidin-1-yl)methanone], the half-maximal inhibitory concentration (IC50) lay within 100 to 1000 nM. Take `CC(C)(C)n1cc(Nc2nc(C3CC3)nc3cn[nH]c23)cn1` [Example 228, N-(1-(tert-butyl)-1H-pyrazol-4-yl)-5-cyclopropyl-1H-pyrazolo[4,3-d]pyrimidin-7-amine]: the half-inhibitory concentration (IC50) was 10 to 100 nM. The value for `CC(=O)N1CCC(n2cc(Nc3nc(C4CCC4)nc4cn[nH]c34)cn2)CC1` [Example 205, 1-(4-(4-((5-cyclobutyl-1H-pyrazolo[4,3-d]pyrimidin-7-yl)amino)-1H-pyrazol-1-yl)piperidin-1-yl)ethan-1-one] was 10 to 100 nM; that for `CC(C)(C)n1cc(Nc2nc(-c3ncco3)nc3cn[nH]c23)cn1` [Example 249, N-(1-(tert-butyl)-1H-pyrazol-4-yl)-5-(oxazol-2-yl)-1H-pyrazolo[4,3-d]pyrimidin-7-amine] was 100 to 1000 nM; that for `COc1ccc(Nc2nc(-c3ccco3)nc3cn[nH]c23)cc1OC` [Example 87, N-(3,4-dimethoxyphenyl)-5-(furan-2-yl)-1H-pyrazolo[4,3-d]pyrimidin-7-amine] was 10 to 100 nM.

For the compound `CN1CCC(n2cc(Nc3nc(-c4nc5ccccc5o4)nc4cn[nH]c34)cn2)CC1` [Example 445, 5-(benzo[d]oxazol-2-yl)-N-(1-(1-methylpiperidin-4-yl)-1H-pyrazol-4-yl)-1H-pyrazolo[4,3-d]pyrimidin-7-amine], the concentration for half-maximal inhibition (IC50) is 10 to 100 nM. In turn, `CC(C)C(C)n1cc(Nc2nc(C3CC3)nc3cn[nH]c23)cn1` (centres unmarked) [Example 498, 5-cyclopropyl-N-(1-(3-methylbutan-2-yl)-1H-pyrazol-4-yl)-1H-pyrazolo[4,3-d]pyrimidin-7-amine] had an IC50 of 10 to 100 nM.

In turn, `OC1CCN(c2ccc(Nc3nc(-c4c(F)cccc4F)nc4cn[nH]c34)cc2)CC1` [Example 522, 1-(4-((5-(2,6-difluorophenyl)-1H-pyrazolo[4,3-d]pyrimidin-7-yl)amino)phenyl)piperidin-4-ol] registered a 50% inhibitory concentration (IC50) of 10 to 100 nM.

In turn, `Cc1c(Nc2nc(C3CC3)nc3cn[nH]c23)cnn1C(C)C` [Example 287, 5-cyclopropyl-N-(1-isopropyl-5-methyl-1H-pyrazol-4-yl)-1H-pyrazolo[4,3-d]pyrimidin-7-amine] gave an IC50 of 100 to 1000 nM. Take `c1nc(-c2nc(Nc3cnn(C4CCOCC4)c3)c3[nH]ncc3n2)co1` [Example 127, 5-(oxazol-4-yl)-N-(1-(tetrahydro-2H-pyran-4-yl)-1H-pyrazol-4-yl)-1H-pyrazolo[4,3-d]pyrimidin-7-amine]: the IC50 is 100 to 1000 nM. `CC(C)(C#N)n1cc(Nc2nc(C3CC3)nc3cn[nH]c23)cn1` [Example 177, 2-(4-((5-cyclopropyl-1H-pyrazolo[4,3-d]pyrimidin-7-yl)amino)-1H-pyrazol-1-yl)-2-methylpropanenitrile] displayed an IC50 of 100 to 1000 nM.

As to `COc1ccc(Nc2nc(C3CCOC3)nc3cn[nH]c23)cc1OC` (centres unmarked) [Example 80, N-(3,4-dimethoxyphenyl)-5-(tetrahydrofuran-3-yl)-1H-pyrazolo[4,3-d]pyrimidin-7-amine], the IC50 was in the range of 100 to 1000 nM.

Take `Cc1ccsc1-c1nc(Nc2ccc(N3CCOCC3)cc2)c2[nH]ncc2n1` [Example 52, 5-(3-methylthiophen-2-yl)-N-(4-morpholinophenyl)-1H-pyrazolo[4,3-d]pyrimidin-7-amine]: the IC50 lay within 10 to 100 nM.
